Measurements from patent US9283261B2, “Linaclotide compositions” (Forest Laboratories Holdings Ltd., priority 2012, dated 2016).
Bridge positions count the residues as written; N and C are the ends. Peptide text beside a SMILES is read from it.

What was measured:
[1] = stability of linaclotide compositions with formaldehyde scavenger compounds, Cys1-IMD by RP-HPLC; type: physicochemical; settings: 40° C., 75% relative humidity; for % Cys1-IMD after storage 4 Weeks / % Cys1-IMD after storage 8 Weeks / % Cys1-IMD after storage 13 Week: percent of chromatogram area, labeled canister (formaldehyde stressor); for % decrease in Cys1-IMD as compared to negative control (after 13 weeks) / % Cys1-IMD after storage 13 Week: 13 weeks
Experimental: 60 cc square HPDE bottle (with 33 mm caps with induction seals) were loaded with (i) capsules containing beads coated with 145 μg or 290 μg of linaclotide, a binder, calcium chloride and leucine with an approximate molar ratio of CaCl2:leucine:linaclotide of 60:30:1, (ii) either no formaldehyde scavenger compound (negative control) or a canister comprising one of the formaldehyde scavenger compounds disclosed in Table 3, and (iii) optionally a canister containing 3 grams of a silica gel desiccant.
In addition, some of the linaclotide compositions contained a formaldehyde stressor (in particular, an adhesive label on the desiccant canister that was applied by the manufacturer of the desiccant canister (Sud Chemie) (its presence in some linaclotide compositions is indicated in the table as “labeled canister”). Regarding the formaldehyde stressor canister, it was observed by applicants that the canister emits about 27.5 ug of formaldehyde in 24 hours at 60° C.
The linaclotide compositions were stored in a 40° C., 75% relative humidity stability chamber. Next, the quantity of Cys1-IMD in each linaclotide composition was determined following 4, 8 and 13 week storage via Reverse Phase-HPLC using a gradient elution with UV detection at 220 nm. Quantitation was based on percent of chromatogram area.
Test samples of linaclotide capsules are prepared by emptying the bead contents into flasks, adding diluent and shaking for 30 minutes. The analysis used the bead contents of a composite of 6 or 8 capsules (for 290 μg and 145 μg, respectively). Operating conditions for the analytical test method by HPLC are outlined in Table 2.

[2] = system: adult patients with IBS-C; experiment: double-blind placebo-controlled studies in IBS-C (Study 1 and Study 2); type: in vivo, human; settings: 290 mcg discontinued
Experimental: In this regard, the efficacy of oral dosage forms comprising […] for the management of IBS-C was established in two double-blind, placebo-controlled, randomized, multicenter studies in adult patients. A total of 800 patients in Study 1 and 804 patients in Study 2 (overall mean age of 43.9 years [range 18-87 years with 5.3% ≧65 years of age], 90.1% female, 77.4% white, 18.8% black, and 12.0% Hispanic) received treatment with LINZESS 290 mcg or placebo once daily and were evaluated for efficacy. All patients met Rome II criteria for IBS and were required to report a mean abdominal pain score of ≧3 on a 0-to-10-point numeric rating scale, <3 complete spontaneous bowel movements (CSBMs; a CSBM is a spontaneous bowel movement [SBM] that is associated with a sense of complete evacuation; an SBM is a bowel movement occurring in the absence of laxative use), and ≦5 SBMs per week during a 2-week baseline period. The study designs were identical through the first 12 weeks, and thereafter differed only in that Study 1 included a 4-week randomized withdrawal (RW) period, and Study 2 continued for 14 additional weeks (total of 26 weeks) of double-blinded treatment.
Efficacy of the oral dosage form of linaclotide was assessed using responder and change-from-baseline endpoints. Results for endpoints were based on information provided daily by patients. […]

Row | SMILES | % Cys1-IMD after storage 4 Weeks [1] [%] | % Cys1-IMD after storage 8 Weeks [1] [%] | % decrease in Cys1-IMD as compared to negative control (after 13 weeks) [1] [%] | % Cys1-IMD after storage 13 Week [1] [%] | rebound of bowel symptoms after discontinuation (4-week RW period) [2]
1 | COC(=O)[C@H](Cc1ccccc1)NC(=O)[C@@H](N)CC(=O)O [aspartame] (H-Asp-Phe-OMe) | 0.82 | 1.54 | −27 | 2.58 | –
2 | CC(C)C[C@H](N)C(=O)O [leucine] | 0.84 | 1.26 | −31 | 2.44 | –
3 | NC(=O)C[C@H](N)C(=O)O [asparagine] | 0.56 | 1.11 | −59 | 1.45 | –
4 | C[C@@H]1NC(=O)[C@@H]2CCCN2C(=O)[C@H](CC(N)=O)NC(=O)[C@@H]2CSSC[C@H](N)C(=O)N[C@H]3CSSC[C@H](NC1=O)C(=O)N[C@@H]([C@@H](C)O)C(=O)NCC(=O)N[C@H](C(=O)N[C@@H](Cc1ccc(O)cc1)C(=O)O)CSSC[C@H](NC(=O)[C@H](Cc1ccc(O)cc1)NC(=O)[C@H](CCC(=O)O)NC3=O)C(=O)N2 [linaclotide] (H-CCEYCCNPACTGCY-OH; disulfide 1-6, 2-10, 5-13 (inferred); N-terminus and C-terminus assumed) | – | – | – | – | no evidence of rebound worsening
5 | NCCCC[C@H](N)C(=O)O [lysine] | 0.87 | 1.27 | −47 | 1.87 | –
6 | NCC(=O)NCC(=O)O [glycine-glycine] (H-Gly-Gly-OH) | 0.89 | 1.40 | −44 | 1.98 | –
7 | CC(C)C[C@H](N)C(=O)O [lyophilized leucine, leucine] | 0.52 | 0.78 | −61 | 1.36 | –
8 | CNC[C@H](O)[C@@H](O)[C@H](O)[C@H](O)CO [d-meglumine] | 0.59 | 0.81 | −76 | 0.84 | –
9 | N[C@@H](Cc1c[nH]cn1)C(=O)O [histidine] | 0.60 | 0.68 | −72 | 1.00 | –
